Reference: patent US7569724B2, “Carbamic acid compounds comprising an amide linkage as HDAC inhibitors” (Topotarget UK Limited, priority 2000, dated 2009)
Where a name gives a salt, the structure may show the parent alone. Read-outs that look alike come from different tables or passages of the source.

How the values were obtained:
HDAC (HeLa cell extract) = assay: Primary assay: deacetylase activity, HeLa cell extract as source of HDAC; type: biochemical, human; conditions: HeLa cell extract
Text: Briefly, this assay relies on the release of radioactive acetate from a radioactively labelled histone fragment by the action of HDAC enzyme. Test compounds, which inhibit HDAC, reduce the yield of radioactive acetate. Signal (e.g., scintillation counts) measured in the presence and absence of a test compound provide an indication of that compound's ability to inhibit HDAC activity. Decreased activity indicates increased inhibition by the test compound.
The histone fragment was an N-terminal sequence from histone H4, and it was labelled with radioactively labelled acetyl groups using tritiated acetylcoenzyme A (coA) in conjunction with an enzyme which is the histone acetyltransferase domain of the transcriptional coactivator p300. […] The acetylated peptide was then separated from free acetyl coA by size exclusion chromatography on Sephadex G-15 (Sigma G-15-120), using distilled H2O as the mobile phase.
After purification of the radiolabelled histone fragment, it was incubated with a source of HDAC (e.g., an extract of HeLa cells (a rich source of HDAC), recombinantly produced HDAC1 or HDAC2) and any released acetate was extracted into an organic phase and quantitatively determined using scintillation counting. By including a test compound with the source of HDAC, that compound's ability to inhibit the HDAC was determined.
The HeLa cell extract was made from HeLa cells (ATCC Ref. No. CCL-2) by freeze-thawing three times in 60 mM TrisCl pH 8.0, 450 mM NaCl, 30% glycerol. Two cell volumes of extraction buffer were used, and particulate material was centrifuged out (20800 g, 4° C., 10 min). The supernatant extract having deacetylase activity was aliquotted and frozen for storage.
A source of HDAC (e.g., 2 μL of crude HeLa extract, 5 μL of HDAC1 or HDAC2; in elution buffer, as above) was incubated with 3 μL of radioactively labelled peptide along with appropriate dilutions of candidate compounds (1.5 μL) in a total volume of 150 μL of buffer (20 mM Tris pH 7.4, 10% glycerol). The reaction was carried out at 37° C. for one hour, after which the reaction was stopped by adding 20 μL of 1 M HCl/0.4 M sodium acetate. […] Radioactivity was measured using a Tri-Carb 2100TR Liquid Scintillation Analyzer (Packard).
Percent activity (% activity) for each test compound was calculated as: % activity={(S^C−B)/(S^o−B)}×100 wherein S^C denotes signal measured in the presence of enzyme and the compound being tested, S^o denotes signal measured in the presence of enzyme but in the absence of the compound being tested, and B denotes the background signal measured in the absence of both enzyme and compound being tested.

HeLa cells = assay: Secondary assay: cell proliferation WST-1, HeLa; type: cell-based; conditions: Homo sapiens, 48 h, read-out: Cell Proliferation Inhibition WST-1 (IC50 unless otherwise specified) HeLa
Experimental: Compounds with HDAC inhibition activity, as determined using the primary assay, were subsequently evaluated using secondary cell-based assays. The following cell lines were used:
HeLa—Human cervical adenocarcinoma cell line (ATCC ref. No. CCL-2).
Cells were plated in 96-well plates at 3-10×10^3 cells/well in 100 μL of culture medium. The following day, different concentrations of candidate compounds were added and the cells incubated at 37° C. for 48 h. Subsequently, 10 μL/well of WST-1 reagent was added and the cells reincubated for 1 hour. After the incubation time, absorbance was measured.
WST-1 is a tetrazolium salt which is cleaved to formazan dye by cellular enzymes. An expansion in the number of viable cells results in an increase in the overall activity of mitochondrial dehydrogenases in the sample. This augmentation in the enzyme activity leads to an increase in the amount of formazan dye formed, which directly correlates to the number of metabolically active cells in the culture. The formazan dye produced is quantified by a scanning multiwell spectrophotometer by measuring the absorbance of the dye solution at 450 nm wavelength (reference wavelength 690 nm).
Percent activity (% activity) in reducing the number of viable cells was calculated for each test compound as: % activity={(S^C−B)/(S^o−B)}×100 wherein S^C denotes signal measured in the presence of the compound being tested, S^o denotes signal measured in the absence of the compound being tested, and B denotes the background signal measured in blank wells containing medium only.
IC50 values were calculated using the software package Prism 3.0 (GraphPad software Inc., San Diego, Calif.), setting top value at 100 and bottom value at 0.

[1] = read-out: HDAC Inhibition (IC50 unless otherwise specified) HeLa
[2] = comparative tables, no unit in cell, read-out: HeLa IC50
[3] = comparative tables, read-out: HeLa IC50

Compound | HDAC Inhibition HeLa, percent (HDAC (HeLa cell extract); @ 1 μM) [% @ 1 μM] | HDAC Inhibition HeLa, percent (HDAC (HeLa cell extract); @ 500 nM) [% @ 500 nM] | further results
CN(C)c1ccc(CC(=O)NCCCC(=O)NO)cc1 [PX082532, 4-(2-(4-Dimethylamino-phenyl)-acetylamino)-N-hydroxy-butyramide] | 21 |  | 
CN(C)c1ccc(C(=O)NCCCC(=O)NO)c2ccccc12 [PX082533] | 2 |  | percent HDAC inhibition at the stated concentration (HDAC (HeLa cell extract); comparative tables, @ 1 μM): 2% @ 1 μM
COc1ccc(NC(=O)CCCC(=O)NO)cc1 [PX082546, Pentanedioic acid hydroxyamide (4-methoxy-phenyl)-amide] | 36 |  | 
CC(C)c1ccc(NC(=O)CCCC(=O)NO)cc1 [PX082548, Pentanedioic acid hydroxyamide (4-isopropyl-phenyl)-amide] | 41 |  | 
COc1ccc(NC(=O)CCCC(=O)NO)cc1OC [PX082549, Pentanedioic acid (3,4-dimethoxy-phenyl)-amide hydroxyamide] | 43 |  | 
CN(C)c1ccc(/C=C/C(=O)NCCCC(=O)NO)cc1 [PX083447, 4-(3-(4-Dimethylamino-phenyl)-acryoylamino)-N-hydroxy-butyramide] | 15 |  | 
O=C(/C=C/C=C/c1ccccc1)NCCC(=O)NO [PX083448] |  |  | IC50 (HDAC (HeLa cell extract); [1]): > 1000 nM; IC50 (HDAC (HeLa cell extract); [2]): > 1000 nM
O=C(/C=C/c1ccc([N+](=O)[O-])cc1)NCCCC(=O)NO [PX083803, N-Hydroxy-4-(3-4-(nitro-phenyl)-acryoylamino)-butyramide] | 15 |  | 
O=C(/C=C/c1ccc(C(F)(F)F)cc1)NCCCC(=O)NO [PX083804, N-Hydroxy-4-(3-4-(trifluoromethyl-phenyl)-acryoylamino)-butyramide] | 14 |  | 
O=C(/C=C/c1ccccc1)NCCC(=O)NO [PX083806] | 19 |  | 
O=C(/C=C/c1ccc([N+](=O)[O-])cc1)NCCC(=O)NO [PX083807, N-(2-Hydroxycarbamoyl-ethyl)-3-(4-nitro-phenyl)-acryamide] | 9 |  | 
O=C(/C=C/C=C/c1ccccc1)NCCCC(=O)NO [PX083808] |  |  | IC50 (HDAC (HeLa cell extract); [1]): 20000 nM; IC50 (HDAC (HeLa cell extract); [2]): > 20000 nM
COc1ccc(C(=O)NCCCCC(=O)NO)cc1 [PX089048, N-(4-Hydroxycarbamoyl-butyl)-4-methoxy-benzamide] | 34 |  | 
O=C(CCCCNC(=O)c1ccccc1)NO [PX089049, N-(4-Hydroxycarbamoyl-butyl)-benzamide] |  |  | IC50 (HDAC (HeLa cell extract); [1]): > 1000 nM
CN(C)c1ccc(C(=O)NCCCCCC(=O)NO)cc1 [PX089274, 4-Dimethylamino-N-(5-hydroxycarbamoyl-pentyl)-benzamide] |  |  | IC50 (HeLa cells): 4400 nM; IC50 (HDAC (HeLa cell extract); [1]): 109 nM; IC50 (HDAC (HeLa cell extract); [3]): 110 nM
O=C(/C=C/c1ccc(C(F)(F)F)cc1)NCCC(=O)NO [PX089283, N-(2-Hydroxycarbamoyl-ethyl)-3-(4-trifluoromethyl-phenyl)-acryamide] | 21 |  | 
O=C(CC(=O)NCCc1ccccc1)NO [PX099268] |  |  | HDAC Inhibition HeLa, percent (HDAC (HeLa cell extract); @ 10 μM): 18% @ 10 μM
CN(C)c1ccc(C=CC(=O)NCCCCCC(=O)NO)cc1 [PX105533] |  |  | IC50 (HDAC (HeLa cell extract); [2]): 18 nM
CN(CCCC(=O)NO)C(=O)/C=C/C=C/c1ccccc1 [PX105668] |  |  | IC50 (HDAC (HeLa cell extract); [1]): > 10000 nM

Compound | HDAC Inhibition HeLa, percent (HDAC (HeLa cell extract); @ 1 μM) [% @ 1 μM] | HDAC Inhibition HeLa, percent (HDAC (HeLa cell extract); @ 500 nM) [% @ 500 nM] | further results
COc1ccc(/C=C/C=C/C(=O)NCCCC(=O)NO)cc1 [PX105670] | 29 |  | 
O=C(/C=C/C=C/c1ccc(Br)cc1)NCCCC(=O)NO [PX105816, (2E)(4E)-5-(4-Bromophenyl)penta-2,4-dienoic acid (3-hydroxycarbamoylpropyl)amide] |  | 20 | 
O=C(/C=C/C=C/c1ccccc1)NCCCCC(=O)NO [PX105832, (2E)(4E)-5-Phenylpenta-2,4-dienoic acid (4-hydroxycarbamoyl-butyl)amide] |  |  | IC50 (HDAC (HeLa cell extract); [1]): 438 nM; IC50 (HDAC (HeLa cell extract); [2]): 438 nM
O=C(/C=C/C=C/c1ccc(Cl)cc1)NCCCC(=O)NO [PX105845, (2E)(4E)-5-(4-Chlorophenyl)-penta-2,4-dienoic acid (3-hydroxycarbamoylpropyl)-amide] |  | 22 | 
O=C(/C=C\C=C\c1ccc(Br)cc1)NCCCC(=O)NO [PX105846, (2Z)(4E)-5-(4-Bromophenyl)penta-2,4-dienoic acid (3-hydroxycarbamoyl-propyl)amide] |  | 46 | 
O=C(/C=C/c1ccccc1)NCCCCCC(=O)NO [PX106517, N-(5-Hydroxycarbamoylpentyl)-3-phenylacrylamide] |  |  | IC50 (HeLa cells): 470 nM; IC50 (HDAC (HeLa cell extract); [1]): 83 nM; IC50 (HDAC (HeLa cell extract); [3]): 83 nM
Nc1nonc1C(=O)NCCCCCC(=O)NO [PX106519, 4-Aminofurazan-3-carboxylic acid (5-hydroxycarbamoylpentyl)amide] |  | 46 | 
O=C(/C=C/c1ccncc1)NCCCCCC(=O)NO [PX106521, (E)-N-(5-Hydroxycarbamoylpentyl)-3-pyridin-4-yl-acrylamide oxalate] |  |  | IC50 (HeLa cells): 46000 nM; IC50 (HDAC (HeLa cell extract); [1]): 138 nM
CC(/C=C/c1ccccc1)=C\C(=O)NCCCCCC(=O)NO [PX106526, (2E,4E)-3-Methyl-5-phenylpenta-2,4-dienoic acid (5-hydroxycarbamoylpentyl)-amide] |  |  | IC50 (HeLa cells): 2100 nM
O=C(/C=C/c1ccccn1)NCCCCCC(=O)NO [PX106528, (E)-N-(5-Hydroxycarbamoylpentyl)-3-pyridin-2-yl-acrylamide oxalate] |  | 67 | 
O=C(CCCCCNC(=O)CCCc1ccccc1)NO [PX116210, N-Hydroxy-6-[(4-phenylbutanoyl)amino]hexanamide] |  | 19 | 
O=C(CCCCCNC(=O)c1ccoc1)NO [PX116219, Furan-3-carboxylic acid (5-hydroxycarbamoyl-pentyl)-amide] |  | 26 | 
O=C(/C=C/C=C/c1ccco1)NCCCCCC(=O)NO [PX116230] |  |  | HDAC Inhibition (IC50 unless otherwise specified) HeLa (HDAC (HeLa cell extract)): insoluble
O=C(/C=C/c1cccnc1)NCCCCCC(=O)NO [PX116231, E-N-(5-Hydroxycarbamoyl-pentyl)-3-pyridin-3-yl-acrylamide oxalate] |  | 51 | 
O=C(CCCCCCC(=O)NCCc1nc2ccccc2[nH]1)NO [PX116241, N^1-[2-(1H-Benzimidazol-2-yl)ethyl]-N^8-hydroxyoctanediamide] |  | 39 | IC50 (HeLa cells): 56000 nM
O=C(/C=C/c1ccc(NC(=O)c2ccc3ccccc3c2)cc1)NO [PX116246, Naphthalene-2-carboxylic acid [4-(2-hydroxycarbamoyl-vinyl)-phenyl]-amide] |  | 52 | 
O=C(/C=C/c1ccc(NC(=O)c2ccccc2)cc1)NO [PX117231, N-[4-(2-Hydroxycarbamoyl-vinyl)-phenyl]-benzamide] |  | 72 | percent HDAC inhibition at the stated concentration (HDAC (HeLa cell extract); comparative tables, @ 1 μM): 72% @ 1 μM
O=C(CCc1ccc(NC(=O)c2ccccc2)cc1)NO [PX117232, N-[4-(2-Hydroxycarbamoyl-ethyl)-phenyl]-benzamide] |  | 43 | percent HDAC inhibition at the stated concentration (HDAC (HeLa cell extract); comparative tables, @ 1 μM): 43% @ 1 μM
O=C(CCCCCCC(=O)Nc1ccccc1)NO [SAHA, Suberoylanilide Hydroxamic Acid, reference compound] |  |  | IC50 (HeLa cells): 2200 nM
